Reference: US11135445B2, “Antimicrobial photodynamic inactivation procedure and system” (The General Hospital Corporation, priority 2014, dated 2021)

Legend:
[1] = tested on: S. aureus; test: Bacteria added after completion of light delivery (MB); format: cell-based, Staphylococcus aureus; details: solution irradiated 5 J/cm^2, incubation 5-30 minutes
Protocol: (§1) To verify if long-lived species such as molecular iodine (I2) or hypoiodous acid (HOI) could be responsible for increased bacterial killing we added bacteria after completion of light delivery.
(§2) We irradiated with 5 J/cm^2 the solutions containing MB or MB+KI to generate the iodine species observed in the spectra described above. Since […] is a stable molecule, and even HOI is reasonably stable with a measurable half-life, by incubating the cells in a solution that could contain photochemically produced bactericidal concentrations of I2 or HOI, we expected to observe bacterial killing. We added bacterial cells and we evaluated the survival fraction of bacteria in an incubation time range between 5 and 30 minutes.

[2] = tested on: MRSA; test: In vivo PDI of burn infected with bioluminescent MRSA; set-up: species or system murine
From the text: In another related embodiment, the implementation of invention as discussed in Example 1 was extended to in vivo studies in a murine infection model of burn and carried out with the use of bioluminescent MRSA and in vivo imaging. The goal here was to verify the increase of the efficacy of PDI-process of bacterial killing by adding KI to MB in an in vivo infection model.
Aggregately, FIGS. 17A through 17E represent a set of 5 representative bioluminescence image time courses from the burn (each time course from a single mouse in each of the 5 groups) infected with MRSA. […] The amount of light required to eradicate bacteria from the wound was much less when the bacteria treated with the (MB+KI) solution was irradiated than when MB alone was used to pre-treat bacteria prior to irradiation.

[3] = tested on: E. coli; test: MB-mediated PDI in vitro with/without KI; format: cell-based, Escherichia coli K12 (ATCC 33780); details: without light
Protocol: (§3) 2) Staphylococcus aureus (NCTC 8325) and Escherichia coli K12 (ATCC 33780) were chosen as representative Gram (+) and Gram (−) bacteria respectively, for in vitro studies. A colony of bacteria was suspended in 25 ml of brain heart infusion (BHI) broth (Becton, Dickinson, and Company, Franklin Lakes, N.J.) and grown overnight in a shaker incubator (New Brunswick Scientific, Edison, N.J.) at 120 rpm in aerobic condition at 37° C. An aliquot of 1 ml from overnight suspension was refreshed in fresh BHI for 2 hours at 37° C. to mid-log phase. Cell concentration was estimated by measuring the optical density (OD) at 600 nm [OD of 0.8=10^8 colony forming units (CFU) cells/mL]. Bacterial suspension was centrifuged, washed and re-suspended in PBS to arrest microbial growth, and used (10^8 CFU) for the in vitro or in vivo experiments.
(§4) In vitro PDI studies were carried with S. aureus and with E. coli. […] An aliquot of 100 ul was used as dark control from each sample, another (100 ul) was irradiated with 5 J/cm^2 dose of light (660 nm light) and then placed in a new 96 well plate. The aliquots were serially diluted 10-fold in PBS to give dilutions of 10^1 to 10^5 times in addition to the original concentration. From each dilution 10 microleter aliquots were seeded horizontally on BHI agar. […] Each experiment was performed at least three times.

[4] = tested on: E. coli; test: Bacteria added after completion of light delivery (MB); format: cell-based, Escherichia coli; details: solution irradiated 5 J/cm^2, incubation 5-30 minutes
Protocol: as §1, §2

[5] = tested on: S. aureus; test: MB-mediated PDI in vitro with/without KI; format: cell-based, Staphylococcus aureus (NCTC 8325); details: without light
Protocol: as §3, §4

With `CN(C)c1ccc2nc3ccc(=[N+](C)C)cc-3sc2c1` [MB, Methylene blue] the “killing of bacteria added after irradiation of the solution” value [1] was “did not observe any bacterial killing”, the “bacterial bioluminescence during PDI” value ([2]; 50 μM MB, with or without 10 mM KI, 660 nm up to 150 J/cm^2) was “light dose-dependent reduction” and the “decrease in bacterial bioluminescence” value ([2]; 660 nm light, n=6) was “around 2 log unit”. The “bacterial re-growth / recurrence after PDI” value ([2]; follow-up over days after PDI) was “not effective to prevent recurrence”, the dark toxicity [3] was “lack of killing without light” and the “killing of bacteria added after irradiation of the solution” value [4] was “did not observe any bacterial killing”. The dark toxicity [5] was “lack of killing without light”.
